# Test system: human genes
# Assay: Editing efficiency of tested crRNAs / guide nucleic acids (Tables 7-10) detected in human cells
# Assay type: cell-based
# Details: for % Indel: tested crRNAs targeting human genes
# [1] = target gene as given (Table 10)
Substance,% Indel [1],% Indel (Target Gene TIGIT),also measured
"gCARD11_1: spacer targeting CARD11, SEQ ID NO 1388, TAGTACCGCTCCTGGAAGGTT (chemistry not given here)",1.37%,–,–
"gCD247_12: spacer targeting CD247, SEQ ID NO 89, CTAGCAGAGAAGGAAGAACCC (chemistry not given here)",70.64%,–,–
gDHODH_1 (guide TTGCAGAAGCGGGCCCAGGAT; chemistry not given here),0.6%,–,–
gDHODH_2 (guide TTGCAGAAGCGGGCCCAGGAT; chemistry not given here),0.59%,–,–
gDHODH_3 (guide TATGCTGAACACCTGATGCCG; chemistry not given here),74.94%,–,–
"gIL7R_3: spacer targeting IL7R, SEQ ID NO 1393, CAGGGGAGATGGATCCTATCT (chemistry not given here)",87.87%,–,–
"gLAG3_6: spacer targeting LAG3, SEQ ID NO 153, GGGTGCATACCTGTCTGGCTG (chemistry not given here)",–,–,% Indel (Target Gene LAG3): 52.4%
"gLCK1_3: spacer targeting LCK, SEQ ID NO 1401, ACCCATCAACCCGTAGGGATG (chemistry not given here)",16.21%,–,–
"gPD_23: spacer targeting PDCD1, SEQ ID NO 210, TCTGCAGGGACAATAGGAGCC (chemistry not given here)",–,–,% Indel (Target Gene PD): 57.6%
"gPLCG1_2: spacer targeting PLCG1, SEQ ID NO 1403, CCTTTCTGCGCTTCGTGGTGT (chemistry not given here)",5.14%,–,–
"gPTPN6_6: spacer targeting PTPN6, SEQ ID NO 249, TATGACCTGTATGGAGGGGAG (chemistry not given here)",–,–,% Indel (Target Gene PTPN6): 83.4%
gPTPN6_8 (guide AGGTGGATGATGGTGCCGTCG; chemistry not given here),–,–,% Indel (Target Gene PTPN6): 3.5%
gPTPN6_9 (guide CCTGACGCTGCCTTCTCTAGG; chemistry not given here),–,–,% Indel (Target Gene PTPN6): 0.8%
gTIGIT_1 (guide CCTGAGGCGAGGGGAGCCTGC; chemistry not given here),–,0.2%,–
"gTIGIT_2: spacer targeting TIGIT, SEQ ID NO 302, AGGCCTTACCTGAGGCGAGGG (chemistry not given here)",–,81.7%,–
gTIGIT_3 (guide GTCCTCTTCCCTAGGAATGAT; chemistry not given here),–,1.3%,–
gTIGIT_4 (guide TATTGTGCCTGTCATCATTCC; chemistry not given here),–,1%,–
gTIGIT_5 (guide TCTGCAGAAATGTTCCCCGTT; chemistry not given here),–,1.1%,–
gTIGIT_6 (guide CTCTGCAGAAATGTTCCCCGT; chemistry not given here),–,0.1%,–
gTIGIT_7 (guide TGCAGAGAAAGGTGGCTCTAT; chemistry not given here),–,6%,–
gTIGIT_8 (guide TGCCGTGGTGGAGGAGAGGTG; chemistry not given here),–,0.3%,–
gTIGIT_9 (guide TGGCCATTTGTAATGCTGACT; chemistry not given here),–,0.8%,–
gTIGIT_10 (guide TAATGCTGACTTGGGGTGGCA; chemistry not given here),–,1.6%,–

Substance,% Indel [1],% Indel (Target Gene TIGIT),also measured
gTIGIT_11 (guide GGGTGGCACATCTCCCCATCC; chemistry not given here),–,9.7%,–
gTIGIT_12 (guide AAGGATGGGGAGATGTGCCAC; chemistry not given here),–,0.4%,–
gTIGIT_13 (guide AAGGATCGAGTGGCCCCAGGT; chemistry not given here),–,0.2%,–
gTIGIT_14 (guide TGCATCTATCACACCTACCCT; chemistry not given here),–,1.4%,–
gTIGIT_15 (guide TAGGACCTCCAGGAAGATTCT; chemistry not given here),–,0.4%,–
gTIGIT_16 (guide CTAGGACCTCCAGGAAGATTC; chemistry not given here),–,0.5%,–
gTIGIT_17 (guide CTCCAGCAGGAATACCTGAGC; chemistry not given here),–,0.8%,–
gTIGIT_18 (guide GTCCTCCCTCTAGTGGCTGAG; chemistry not given here),–,72.4%,–
gTIGIT_19 (guide GAGCCATGGCCGCGACGCTGG; chemistry not given here),–,0.9%,–
gTIGIT_20 (guide TAGTCAACGCGACCACCACGA; chemistry not given here),–,0.1%,–
gTIGIT_21 (guide CTAGTCAACGCGACCACCACG; chemistry not given here),–,0.1%,–
gTIGIT_22 (guide TAGTTTGTTTGTTTTTAGAAG; chemistry not given here),–,0.6%,–
gTIGIT_23 (guide TTTGTTTTTAGAAGAAAGCCC; chemistry not given here),–,1%,–
gTIGIT_24 (guide TTTTTAGAAGAAAGCCCTCAG; chemistry not given here),–,0.4%,–
gTIGIT_25 (guide TAGAAGAAAGCCCTCAGAATC; chemistry not given here),–,1.2%,–
gTIGIT_26 (guide CACAGAATGGATTCTGAGGGC; chemistry not given here),–,0.3%,–
gTIGIT_27 (guide CTCCTGAGGTCACCTTCCACA; chemistry not given here),–,1.6%,–
gTIGIT_28 (guide CTGGGGGTGAGGGAGCACTGG; chemistry not given here),–,0.5%,–
gTIGIT_29 (guide TGCCTGGACACAGCTTCCTGG; chemistry not given here),–,0.3%,–
gTIGIT_30 (guide TGTAACTCAGGACATTGAAGT; chemistry not given here),–,0.5%,–
gTIGIT_31 (guide AATGTCCTGAGTTACAGAAGC; chemistry not given here),–,0.5%,–
"gTRAC006: spacer targeting TRAC, SEQ ID NO 988, TGAGGGTGAAGGATAGACGCT (chemistry not given here)",81.8%,–,–
gTRAC084 (guide GACTTTTCCCAGCTGACAGAT; chemistry not given here),1.6%,–,–

Substance,% Indel [1],% Indel (Target Gene TIGIT),also measured
gTRAC085 (guide TCAACCCTGAGTTAAAACACA; chemistry not given here),0.5%,–,–
gTRAC086 (guide CTCAACCCTGAGTTAAAACAC; chemistry not given here),0.2%,–,–
gTRAC087 (guide TCCTGAAGGTAGCTGTTTTCT; chemistry not given here),0.2%,–,–
gTRAC088 (guide GTCCTGAAGGTAGCTGTTTTC; chemistry not given here),0.1%,–,–
gTRAC089 (guide AACTCAGGGTTGAGAAAACAG; chemistry not given here),–,–,% Indel (Target Gene TRAC): 0.7%
gTRAC090 (guide ACTCAGGGTTGAGAAAACAGC; chemistry not given here),–,–,% Indel (Target Gene TRAC): 0.1%
gTRBC1 + 2_1 (guide AGCCATCAGAAGCAGAGATCT; chemistry not given here),–,–,"% Indel (TRBC1) (crRNA targeting TRBC1 + 2, value at TRBC1): 66.40%; % Indel (TRBC2) (crRNA targeting TRBC1 + 2, value at TRBC2): 74.7%"
gTRBC2_7 (guide CCCTGTTTTCTTTCAGACTGT; chemistry not given here),0.09%,–,–
gTRBC2_8 (guide CTTTCAGACTGTGGCTTCACC; chemistry not given here),0.24%,–,–
gTRBC2_9 (guide TTTCAGACTGTGGCTTCACCT; chemistry not given here),0.24%,–,–
gTRBC2_10 (guide CAGACTGTGGCTTCACCTCCG; chemistry not given here),0.16%,–,–
gTRBC2_11 (guide AGACTGTGGCTTCACCTCCGG; chemistry not given here),19.97%,–,–
"gTRBC2_12: spacer targeting TRBC2, SEQ ID NO 1379, CCGGAGGTGAAGCCACAGTCT (chemistry not given here)",33.14%,–,–
gTRBC2_13 (guide TCAACAGAGTCTTACCAGCAA; chemistry not given here),1.2%,–,–
gTRBC2_14 (guide CCAGCAAGGGGTCCTGTCTGC; chemistry not given here),6.69%,–,–
gTRBC2_15 (guide CTAGGGAAGGCCACCTTGTAT; chemistry not given here),21.74%,–,–
gTRBC2_16 (guide TATGCCGTGCTGGTCAGTGCC; chemistry not given here),0.2%,–,–
gTRBC2_17 (guide CCATGGCCATCAGCACGAGGG; chemistry not given here),1.75%,–,–
gTRBC2_18 (guide CCTAGCAAGATCTCATAGAGG; chemistry not given here),0.37%,–,–
gTRBC2_19 (guide CACAGGTCAAGAGAAAGGATT; chemistry not given here),1.58%,–,–
gTRBC2_21 (guide GAGCTAGCCTCTGGAATCCTT; chemistry not given here),11.89%,–,–

# From US20250179481A1, “COMPOSITIONS AND METHODS FOR TARGETING, EDITING, OR MODIFYING GENES” (Celyntra Therapeutics SA, priority 2021, published 2025)
